Assay results: ChEMBL document CHEMBL4219190, “Studies on synthesis of novel pyrido[2,3-d]pyrimidine derivatives, evaluation of their antimicrobial activity and molecular docking” (Bioorg Med Chem Lett, 2018)
≈ marks a conversion by molar mass, not a printed value. Blank lines part the entries; values can stand above or below the compound they belong to. Calls of active or inactive are those of the source. No cut-off for these calls is given here.

Tests used:
Nakaseomyces glabratus [1] = test: Fungicidal activity against Candida glabrata MTCC 3019 incubated for 24 hrs followed by transfer of microbial suspension to Sabouraud dextrose agar plates and measured after 24 hrs post transfer; assay type: functional; conditions: MTCC 3019, 24 h
Candida albicans [2] = test: Fungicidal activity against Candida albicans MTCC 4748 incubated for 24 hrs followed by transfer of microbial suspension to Sabouraud dextrose agar plates and measured after 24 hrs post transfer; assay type: functional; conditions: MTCC 4748, 24 h
Candida albicans [3] = test: Fungicidal activity against Candida albicans MTCC 3958 incubated for 24 hrs followed by transfer of microbial suspension to Sabouraud dextrose agar plates and measured after 24 hrs post transfer; assay type: functional
Raoultella planticola [4] = test: Antibacterial activity against Klebsiella planticola MTCC 530 after 24 hrs by well diffusion method; assay type: functional
Pichia sporocuriosa [5] = test: Fungicidal activity against Issatchenkia hanoiensis MTCC 4755 incubated for 24 hrs followed by transfer of microbial suspension to Sabouraud dextrose agar plates and measured after 24 hrs post transfer; assay type: functional; conditions: MTCC 4755, 24 h
Candida albicans [6] = test: Antifungal activity against Candida albicans MTCC 183 after 24 hrs by well diffusion method; assay type: functional; conditions: MTCC 183, 24 h
Micrococcus luteus [7] = test: Antibacterial activity against Micrococcus luteus MTCC 2470 after 24 hrs by well diffusion method; assay type: functional
Staphylococcus aureus [8] = test: Antibacterial activity against Staphylococcus aureus MTCC 96 after 24 hrs by well diffusion method; assay type: functional
Candida albicans [9] = test: Fungicidal activity against Candida albicans MTCC 183 incubated for 24 hrs followed by transfer of microbial suspension to Sabouraud dextrose agar plates and measured after 24 hrs post transfer; assay type: functional; conditions: MTCC 183, 24 h
Candida albicans [10] = test: Antifungal activity against Candida albicans MTCC 3958 after 24 hrs by well diffusion method; assay type: functional
Candida albicans [11] = test: Antifungal activity against Candida albicans MTCC 3017 after 24 hrs by well diffusion method; assay type: functional; conditions: MTCC 3017, 24 h
[Candida] aaseri [12] = Fungicidal activity against Candida aaseri MTCC 1962 incubated for 24 hrs followed by transfer of microbial suspension to Sabouraud dextrose agar plates and measured after 24 hrs post transfer; assay type: functional; conditions: Yamadazyma aaseri, MTCC 1962, 24 h
Candida albicans [13] = test: Fungicidal activity against Candida albicans MTCC 1637 incubated for 24 hrs followed by transfer of microbial suspension to Sabouraud dextrose agar plates and measured after 24 hrs post transfer; assay type: functional
Escherichia coli [14] = test: Antibacterial activity against Escherichia coli MTCC 739 after 24 hrs by well diffusion method; assay type: functional
Candida albicans [15] = test: Antifungal activity against Candida albicans MTCC 854 after 24 hrs by well diffusion method; assay type: functional
Candida parapsilosis [16] = test: Antifungal activity against Candida parapsilosis MTCC 1744 after 24 hrs by well diffusion method; assay type: functional; conditions: MTCC 1744, 24 h
Candida albicans [17] = test: Antifungal activity against Candida albicans MTCC 1637 after 24 hrs by well diffusion method; assay type: functional
Pichia sporocuriosa [18] = test: Antifungal activity against Issatchenkia hanoiensis MTCC 4755 after 24 hrs by well diffusion method; assay type: functional; conditions: MTCC 4755, 24 h
Candida albicans [19] = test: Fungicidal activity against Candida albicans MTCC 3017 incubated for 24 hrs followed by transfer of microbial suspension to Sabouraud dextrose agar plates and measured after 24 hrs post transfer; assay type: functional; conditions: MTCC 3017, 24 h
Staphylococcus aureus [20] = test: Bactericidal activity against Staphylococcus aureus MTCC 96 incubated for 24 hrs followed by transfer of microbial suspension to Mueller Hinton agar plates and measured after 24 hrs post transfer; assay type: functional; conditions: MTCC 96, 24 h
Candida albicans [21] = test: Antifungal activity against Candida albicans MTCC 4748 after 24 hrs by well diffusion method; assay type: functional; conditions: MTCC 4748, 24 h
Candida albicans [22] = test: Fungicidal activity against Candida albicans MTCC 7315 incubated for 24 hrs followed by transfer of microbial suspension to Sabouraud dextrose agar plates and measured after 24 hrs post transfer; assay type: functional; conditions: MTCC 7315, 24 h
Escherichia coli [23] = test: Bactericidal activity against Escherichia coli MTCC 739 incubated for 24 hrs followed by transfer of microbial suspension to Mueller Hinton agar plates and measured after 24 hrs post transfer; assay type: functional
Candida albicans [24] = test: Fungicidal activity against Candida albicans MTCC 3018 incubated for 24 hrs followed by transfer of microbial suspension to Sabouraud dextrose agar plates and measured after 24 hrs post transfer; assay type: functional
Bacillus subtilis [25] = test: Antibiofilm activity against Bacillus subtilis MTCC 121 after 24 hrs by crystal violet staining-based assay; assay type: functional, organism-based
Micrococcus luteus [26] = test: Bactericidal activity against Micrococcus luteus MTCC 2470 incubated for 24 hrs followed by transfer of microbial suspension to Mueller Hinton agar plates and measured after 24 hrs post transfer; assay type: functional
Staphylococcus aureus [27] = test: Bactericidal activity against Staphylococcus aureus MLS16 MTCC 2940 incubated for 24 hrs followed by transfer of microbial suspension to Mueller Hinton agar plates and measured after 24 hrs post transfer; assay type: functional
Staphylococcus aureus [28] = test: Antibacterial activity against Staphylococcus aureus MLS16 MTCC 2940 after 24 hrs by well diffusion method; assay type: functional
Candida albicans [29] = test: Fungicidal activity against Candida albicans MTCC 854 incubated for 24 hrs followed by transfer of microbial suspension to Sabouraud dextrose agar plates and measured after 24 hrs post transfer; assay type: functional
Raoultella planticola [30] = test: Bactericidal activity against Klebsiella planticola MTCC 530 incubated for 24 hrs followed by transfer of microbial suspension to Mueller Hinton agar plates and measured after 24 hrs post transfer; assay type: functional
Pichia kudriavzevii [31] = test: Fungicidal activity against Candida krusei MTCC 3020 incubated for 24 hrs followed by transfer of microbial suspension to Sabouraud dextrose agar plates and measured after 24 hrs post transfer; assay type: functional
Candida albicans [32] = test: Fungicidal activity against Candida albicans MTCC 227 incubated for 24 hrs followed by transfer of microbial suspension to Sabouraud dextrose agar plates and measured after 24 hrs post transfer; assay type: functional
Pseudomonas aeruginosa [33] = test: Antibacterial activity against Pseudomonas aeruginosa MTCC 2453 after 24 hrs by well diffusion method; assay type: functional
Candida albicans [34] = test: Antifungal activity against Candida albicans MTCC 227 after 24 hrs by well diffusion method; assay type: functional
Pseudomonas aeruginosa [35] = test: Bactericidal activity against Pseudomonas aeruginosa MTCC 2453 incubated for 24 hrs followed by transfer of microbial suspension to Mueller Hinton agar plates and measured after 24 hrs post transfer; assay type: functional
Bacillus subtilis [36] = test: Antibacterial activity against Bacillus subtilis MTCC 121 after 24 hrs by well diffusion method; assay type: functional
Nakaseomyces glabratus [37] = test: Antifungal activity against Candida glabrata MTCC 3019 after 24 hrs by well diffusion method; assay type: functional; conditions: MTCC 3019, 24 h
Candida albicans [38] = test: Antifungal activity against Candida albicans MTCC 7315 after 24 hrs by well diffusion method; assay type: functional; conditions: MTCC 7315, 24 h
Candida albicans [39] = test: Antifungal activity against Candida albicans MTCC 3018 after 24 hrs by well diffusion method; assay type: functional
Pseudomonas aeruginosa [40] = test: Antibiofilm activity against Pseudomonas aeruginosa MTCC 2453 after 24 hrs by crystal violet staining-based assay; assay type: functional, organism-based
Staphylococcus aureus [41] = test: Antibiofilm activity against Staphylococcus aureus MTCC 96 after 24 hrs by crystal violet staining-based assay; assay type: functional, organism-based; conditions: Staphylococcus aureus, MTCC 96, 24 h; read-out: IC50
[Candida] aaseri [42] = Antifungal activity against Candida aaseri MTCC 1962 after 24 hrs by well diffusion method; assay type: functional; conditions: Yamadazyma aaseri, MTCC 1962, 24 h
Pichia kudriavzevii [43] = test: Antifungal activity against Candida krusei MTCC 3020 after 24 hrs by well diffusion method; assay type: functional
Candida parapsilosis [44] = test: Fungicidal activity against Candida parapsilosis MTCC 1744 incubated for 24 hrs followed by transfer of microbial suspension to Sabouraud dextrose agar plates and measured after 24 hrs post transfer; assay type: functional; conditions: Lodderomyces parapsilosis, MTCC 1744, 24 h
Staphylococcus aureus [45] = test: Antibiofilm activity against Staphylococcus aureus MLS16 MTCC 2940 after 24 hrs by crystal violet staining-based assay; assay type: functional, organism-based
Bacillus subtilis [46] = test: Bactericidal activity against Bacillus subtilis MTCC 121 incubated for 24 hrs followed by transfer of microbial suspension to Mueller Hinton agar plates and measured after 24 hrs post transfer; assay type: functional
Raoultella planticola [47] = test: Antibiofilm activity against Klebsiella planticola MTCC 530 after 24 hrs by crystal violet staining-based assay; assay type: functional, organism-based

MIC (Candida albicans [6]): 31.2 µg/mL (≈ 64.4 µM) | MIC (Micrococcus luteus [7]): inactive | MIC (Staphylococcus aureus [8]; MTCC 96, 24 h): 31.2 µg/mL (≈ 64.4 µM) | MIC (Candida albicans [10]): inactive | MIC (Candida albicans [11]): 31.2 µg/mL (≈ 64.4 µM) | MIC (Escherichia coli [14]): inactive | MIC (Candida albicans [15]): inactive | MIC (Candida parapsilosis [16]): 31.2 µg/mL (≈ 64.4 µM) | MIC (Candida albicans [17]): inactive | MIC (Pichia sporocuriosa [18]): 31.2 µg/mL (≈ 64.4 µM) | MIC (Candida albicans [21]): 62.5 µg/mL (≈ 129 µM) | IC50 (Bacillus subtilis [25]): Not Active | MIC (Staphylococcus aureus [28]): inactive | MIC (Pseudomonas aeruginosa [33]): inactive | MIC (Candida albicans [34]): inactive | MIC (Bacillus subtilis [36]): inactive | MIC (Nakaseomyces glabratus [37]): 15.6 µg/mL (≈ 32.2 µM) | MIC (Candida albicans [38]): 62.5 µg/mL (≈ 129 µM) | MIC (Candida albicans [39]): inactive | IC50 (Pseudomonas aeruginosa [40]): Not Active | IC50 (Staphylococcus aureus [41]): 21.6 µg/mL (≈ 44.6 µM) | MIC ([Candida] aaseri [42]): 31.2 µg/mL (≈ 64.4 µM) | MIC (Pichia kudriavzevii [43]; MTCC 3020, 24 h): 15.6 µg/mL (≈ 32.2 µM) | IC50 (Staphylococcus aureus [45]): Not Active
SMILES: O=C(NCc1ccccc1)c1nc(-c2ccccc2)c2c(C(F)(F)F)cc(-c3ccccc3)nc2n1
MFC (Nakaseomyces glabratus [1]): 31.2 µg/mL (≈ 64.4 µM) | MFC (Candida albicans [2]): 62.5 µg/mL (≈ 129 µM) | MFC (Candida albicans [3]): inactive | MIC (Raoultella planticola [4]): inactive | MFC (Pichia sporocuriosa [5]): 62.5 µg/mL (≈ 129 µM) | MFC (Candida albicans [9]): 62.5 µg/mL (≈ 129 µM) | MFC ([Candida] aaseri [12]): 62.5 µg/mL (≈ 129 µM) | MFC (Candida albicans [13]): inactive | MFC (Candida albicans [19]): 62.5 µg/mL (≈ 129 µM) | MBC (Staphylococcus aureus [20]): 31.2 µg/mL (≈ 64.4 µM) | MFC (Candida albicans [22]): 62.5 µg/mL (≈ 129 µM) | MBC (Escherichia coli [23]): inactive | MFC (Candida albicans [24]): inactive | MBC (Micrococcus luteus [26]): inactive | MBC (Staphylococcus aureus [27]): inactive | MFC (Candida albicans [29]): inactive | MBC (Raoultella planticola [30]): inactive | MFC (Pichia kudriavzevii [31]; MTCC 3020, 24 h): 31.2 µg/mL (≈ 64.4 µM) | MFC (Candida albicans [32]): inactive | MBC (Pseudomonas aeruginosa [35]): inactive | MFC (Candida parapsilosis [44]): 62.5 µg/mL (≈ 129 µM) | MBC (Bacillus subtilis [46]): inactive | IC50 (Raoultella planticola [47]): Not Active

MIC (Candida albicans [6]): 7.8 µg/mL (≈ 17.4 µM) | MIC (Micrococcus luteus [7]): inactive | MIC (Staphylococcus aureus [8]): inactive | MIC (Candida albicans [10]; MTCC 3958, 24 h): 31.2 µg/mL (≈ 69.6 µM) | MIC (Candida albicans [11]): 7.8 µg/mL (≈ 17.4 µM) | MIC (Escherichia coli [14]): inactive | MIC (Candida albicans [15]; MTCC 854, 24 h): 7.8 µg/mL (≈ 17.4 µM) | MIC (Candida parapsilosis [16]): 15.6 µg/mL (≈ 34.8 µM) | MIC (Candida albicans [17]; MTCC 1637, 24 h): 7.8 µg/mL (≈ 17.4 µM) | MIC (Pichia sporocuriosa [18]): 31.2 µg/mL (≈ 69.6 µM) | MIC (Candida albicans [21]): 62.5 µg/mL (≈ 139 µM) | MIC (Staphylococcus aureus [28]): inactive | MIC (Pseudomonas aeruginosa [33]): inactive | MIC (Candida albicans [34]; MTCC 227, 24 h): 15.6 µg/mL (≈ 34.8 µM) | MIC (Bacillus subtilis [36]): inactive | MIC (Nakaseomyces glabratus [37]): 31.2 µg/mL (≈ 69.6 µM) | MIC (Candida albicans [38]): 15.6 µg/mL (≈ 34.8 µM) | MIC (Candida albicans [39]; MTCC 3018, 24 h): 31.2 µg/mL (≈ 69.6 µM) | MIC ([Candida] aaseri [42]): 7.8 µg/mL (≈ 17.4 µM) | MIC (Pichia kudriavzevii [43]): inactive
SMILES: O=C(c1nc(-c2ccccc2)c2c(C(F)(F)F)cc(-c3ccccc3)nc2n1)N1CCCC1
MFC (Nakaseomyces glabratus [1]): 31.2 µg/mL (≈ 69.6 µM) | MFC (Candida albicans [2]): 62.5 µg/mL (≈ 139 µM) | MFC (Candida albicans [3]; MTCC 3958, 24 h): 62.5 µg/mL (≈ 139 µM) | MIC (Raoultella planticola [4]): inactive | MFC (Pichia sporocuriosa [5]): 62.5 µg/mL (≈ 139 µM) | MFC (Candida albicans [9]): 15.6 µg/mL (≈ 34.8 µM) | MFC ([Candida] aaseri [12]): 15.6 µg/mL (≈ 34.8 µM) | MFC (Candida albicans [13]; MTCC 1637, 24 h): 15.6 µg/mL (≈ 34.8 µM) | MFC (Candida albicans [19]): 15.6 µg/mL (≈ 34.8 µM) | MFC (Candida albicans [22]): 31.2 µg/mL (≈ 69.6 µM) | MFC (Candida albicans [24]; MTCC 3018, 24 h): 62.5 µg/mL (≈ 139 µM) | MFC (Candida albicans [29]; MTCC 854, 24 h): 15.6 µg/mL (≈ 34.8 µM) | MFC (Pichia kudriavzevii [31]): inactive | MFC (Candida albicans [32]; MTCC 227, 24 h): 31.2 µg/mL (≈ 69.6 µM) | MFC (Candida parapsilosis [44]): 15.6 µg/mL (≈ 34.8 µM)
